Converted amounts (≈) assume the structure as drawn.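 Interpolation was linear, between the two tested concentrations surrounding the appropriate level; five concentrations were tested over 48 hours in 96-well plates. GI50 = concentration required for 50% inhibition of growth. The concentration for full growth arrest is given as TGI.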
How the values were obtained:
Assay in all cases: NCI tumour cell line growth inhibition, 48 h
[1] = test system: HOP-62 NSCLC
[2] = test system: LXFL 529 NSCLC
[3] = test system: KM20L2 colon
[4] = test system: DMS 114 small cell lung
[5] = test system: XF 498 CNS
[6] = test system: DMS 273 small cell lung
[7] = test system: DLD-1 colon
[8] = test system: HOP-18 NSCLC
[9] = test system: BT-549 breast
[10] = test system: MDA-N
[11] = test system: T-47D breast
[12] = test system: MDA-MB-231 breast
[13] = test system: PC-3 prostate
[14] = test system: SNB-78 CNS
[15] = test system: P388 leukemia

SMILES	TGI [1]	TGI [2] [µM]	TGI [3] [µM]	TGI [4] [µM]	TGI [5] [µM]	TGI [6] [µM]	TGI [7] [µM]	TGI [8] [µM]	TGI [9]	TGI [10] [µM]	TGI [11]	TGI [12]	TGI [13]	other results
O=C1CC2CC3OC3[C@H]3c4cc5c(cc4C(=O)N1C23)OCO5 (stereo partly specified)	> 100 µM	> 100	> 100	> 100	> 100	> 100								
CC(=O)Nc1ccc(C(=O)NN2C(=O)C(Cl)/C2=C/c2ccco2)cc1 (stereo unspecified)	> 100 µM	> 100					> 100	> 100						
COc1cc(C(C)O)c(S(=O)(=O)CC(C)O)nn1 (stereo unspecified)									> 100 µM	> 100				
Nc1[nH]nc(Nc2ccc(Cl)cc2)c1P(=O)(c1ccccc1)c1ccccc1	49.1 µM									47.4	> 100 µM	49.8 µM	61.1 µM	
CC(=O)c1c(C)nc(SSc2nc(C)c(C(C)=O)c(-c3ccc(Cl)cc3)c2C#N)c(C#N)c1-c1ccc(Cl)cc1	> 150 mg/L								97.2 mg/L		> 150 mg/L	103 mg/L	> 150 mg/L	GI50 [11]: 36.1 mg/L (≈ 59.8 µM); GI50 [1]: 47.5 mg/L (≈ 78.7 µM); GI50 [9]: 38.4 mg/L (≈ 63.6 µM); GI50 [12]: 34.4 mg/L (≈ 56.9 µM); GI50 [13]: > 150 mg/L
CC(=O)OCC1OC(n2cc(F)c(=O)[nH]c2=O)C(NC(=O)OCc2ccccc2)C(OC(C)=O)C1OC(C)=O (stereo unspecified)	> 100 µM		> 100	> 100	> 100	> 100	> 100	> 100						TGI [14]: > 100 µM; TGI [15]: > 100 µM
